This is an account of results in patent US11629143B2, “HipK4 inhibitors and uses thereof” (Vibliome Therapeutics, LLC, priority 2020, dated 2023).

Bounds are passed on as bounds.

What all share (experiment): Kinase panel (mobility shift)
Holding throughout (format): biochemical

For one assay, the target named is T1, TAOK2 (Homo sapiens, UniProt Q9UL54).
T1 sequence (Q9UL54 1-1235): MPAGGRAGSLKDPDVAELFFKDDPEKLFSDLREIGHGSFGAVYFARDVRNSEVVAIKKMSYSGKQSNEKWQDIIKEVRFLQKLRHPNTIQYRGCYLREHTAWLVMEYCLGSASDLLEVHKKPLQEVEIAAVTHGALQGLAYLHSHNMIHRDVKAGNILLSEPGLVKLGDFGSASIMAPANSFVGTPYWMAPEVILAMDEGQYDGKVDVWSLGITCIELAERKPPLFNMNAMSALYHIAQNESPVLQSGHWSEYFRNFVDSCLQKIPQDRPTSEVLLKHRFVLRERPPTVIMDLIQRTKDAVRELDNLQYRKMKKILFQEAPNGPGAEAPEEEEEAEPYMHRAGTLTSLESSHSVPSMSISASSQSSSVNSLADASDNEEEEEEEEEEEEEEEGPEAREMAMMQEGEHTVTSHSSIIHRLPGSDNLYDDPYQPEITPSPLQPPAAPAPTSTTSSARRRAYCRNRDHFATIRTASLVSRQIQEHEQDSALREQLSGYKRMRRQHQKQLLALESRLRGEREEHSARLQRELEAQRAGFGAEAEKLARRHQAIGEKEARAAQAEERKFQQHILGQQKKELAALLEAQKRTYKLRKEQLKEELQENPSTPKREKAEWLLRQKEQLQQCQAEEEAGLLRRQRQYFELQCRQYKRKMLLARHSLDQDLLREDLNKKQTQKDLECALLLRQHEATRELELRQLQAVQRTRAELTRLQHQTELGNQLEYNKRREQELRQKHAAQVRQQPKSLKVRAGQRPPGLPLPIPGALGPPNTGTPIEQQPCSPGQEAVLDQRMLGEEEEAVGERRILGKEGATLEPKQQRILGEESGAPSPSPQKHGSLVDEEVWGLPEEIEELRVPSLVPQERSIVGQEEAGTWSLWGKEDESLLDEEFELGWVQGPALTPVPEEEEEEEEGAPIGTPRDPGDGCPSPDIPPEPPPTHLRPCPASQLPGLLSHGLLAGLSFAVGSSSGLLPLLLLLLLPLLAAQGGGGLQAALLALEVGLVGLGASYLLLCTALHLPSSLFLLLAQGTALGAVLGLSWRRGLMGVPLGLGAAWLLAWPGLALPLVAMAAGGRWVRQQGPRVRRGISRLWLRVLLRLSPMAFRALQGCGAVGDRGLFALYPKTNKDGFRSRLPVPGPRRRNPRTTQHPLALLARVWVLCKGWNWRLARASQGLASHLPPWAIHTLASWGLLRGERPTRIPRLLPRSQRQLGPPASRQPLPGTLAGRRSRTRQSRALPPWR
The procedure, abridged: (§1)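 Tested at a single 5 um concentration within a 299-kinase panel, compounds were scored by electrophoretic mobility shift of a fluorescent substrate into product. Categories: A, 95% or greater; B, 90%-94%; C, 80%-89%.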

The target of a further assay is LCK (Homo sapiens, UniProt P06239). The procedure, abridged:
as §1

A further assay has as its target TRKA (Homo sapiens, UniProt P04629). The procedure, abridged:
as §1

For a further assay, the target named is EPH-A5 (Homo sapiens, UniProt P54756). The settings on record: at 5 um. The procedure, abridged: as §1
In another assay the target is T2, TAOK3 (Homo sapiens, UniProt Q9H2K8).
T2 sequence (Q9H2K8 1-898): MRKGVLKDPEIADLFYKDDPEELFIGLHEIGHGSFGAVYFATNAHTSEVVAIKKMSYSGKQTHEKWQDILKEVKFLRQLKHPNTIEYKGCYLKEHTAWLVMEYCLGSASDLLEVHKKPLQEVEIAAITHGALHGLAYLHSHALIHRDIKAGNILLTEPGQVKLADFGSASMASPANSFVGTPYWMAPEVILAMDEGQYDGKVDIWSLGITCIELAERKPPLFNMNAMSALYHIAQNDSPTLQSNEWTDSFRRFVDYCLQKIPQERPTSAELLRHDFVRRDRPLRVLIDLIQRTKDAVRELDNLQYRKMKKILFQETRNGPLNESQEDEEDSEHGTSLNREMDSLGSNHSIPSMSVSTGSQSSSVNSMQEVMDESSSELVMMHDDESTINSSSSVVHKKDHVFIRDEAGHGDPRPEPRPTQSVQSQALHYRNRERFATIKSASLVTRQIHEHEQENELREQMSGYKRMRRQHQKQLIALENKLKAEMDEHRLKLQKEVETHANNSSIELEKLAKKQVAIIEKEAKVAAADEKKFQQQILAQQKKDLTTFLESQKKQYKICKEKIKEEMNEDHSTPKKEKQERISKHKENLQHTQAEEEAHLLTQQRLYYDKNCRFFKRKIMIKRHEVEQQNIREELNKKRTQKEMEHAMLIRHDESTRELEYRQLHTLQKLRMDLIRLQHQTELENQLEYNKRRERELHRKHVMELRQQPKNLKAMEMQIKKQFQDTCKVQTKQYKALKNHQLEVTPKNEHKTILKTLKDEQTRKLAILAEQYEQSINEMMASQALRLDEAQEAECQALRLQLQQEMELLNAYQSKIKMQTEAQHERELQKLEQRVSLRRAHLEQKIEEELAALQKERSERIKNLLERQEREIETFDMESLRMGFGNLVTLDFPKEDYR
The procedure, abridged: as §1

EPH-A5, sequence (P54756 25-1037, species assumed): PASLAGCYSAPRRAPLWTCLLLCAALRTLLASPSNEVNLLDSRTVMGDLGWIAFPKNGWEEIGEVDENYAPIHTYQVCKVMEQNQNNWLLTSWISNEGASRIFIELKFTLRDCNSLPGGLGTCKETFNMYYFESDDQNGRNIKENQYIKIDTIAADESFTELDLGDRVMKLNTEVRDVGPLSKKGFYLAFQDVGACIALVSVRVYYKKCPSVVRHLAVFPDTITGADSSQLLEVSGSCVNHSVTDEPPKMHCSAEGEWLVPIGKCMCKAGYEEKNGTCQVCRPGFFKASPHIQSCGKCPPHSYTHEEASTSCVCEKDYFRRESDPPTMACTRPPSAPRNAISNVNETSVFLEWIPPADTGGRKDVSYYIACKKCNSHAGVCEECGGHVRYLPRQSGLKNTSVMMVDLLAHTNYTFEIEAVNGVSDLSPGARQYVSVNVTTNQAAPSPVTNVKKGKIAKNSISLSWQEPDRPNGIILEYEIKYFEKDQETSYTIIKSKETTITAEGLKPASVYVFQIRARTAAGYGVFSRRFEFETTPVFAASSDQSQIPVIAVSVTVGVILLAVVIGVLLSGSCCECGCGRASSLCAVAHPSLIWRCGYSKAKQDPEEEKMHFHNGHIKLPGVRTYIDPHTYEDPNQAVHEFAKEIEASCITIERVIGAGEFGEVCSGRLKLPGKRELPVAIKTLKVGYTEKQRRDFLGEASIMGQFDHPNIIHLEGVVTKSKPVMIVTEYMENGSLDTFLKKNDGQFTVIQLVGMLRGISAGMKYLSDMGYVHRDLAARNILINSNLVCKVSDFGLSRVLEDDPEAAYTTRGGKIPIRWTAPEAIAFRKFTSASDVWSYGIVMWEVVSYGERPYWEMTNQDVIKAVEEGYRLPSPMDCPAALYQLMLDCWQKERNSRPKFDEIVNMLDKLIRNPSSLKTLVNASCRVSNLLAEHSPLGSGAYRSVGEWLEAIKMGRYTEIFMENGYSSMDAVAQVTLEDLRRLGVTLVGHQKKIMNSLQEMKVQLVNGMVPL
TRKA, sequence (P04629 33-796, species assumed): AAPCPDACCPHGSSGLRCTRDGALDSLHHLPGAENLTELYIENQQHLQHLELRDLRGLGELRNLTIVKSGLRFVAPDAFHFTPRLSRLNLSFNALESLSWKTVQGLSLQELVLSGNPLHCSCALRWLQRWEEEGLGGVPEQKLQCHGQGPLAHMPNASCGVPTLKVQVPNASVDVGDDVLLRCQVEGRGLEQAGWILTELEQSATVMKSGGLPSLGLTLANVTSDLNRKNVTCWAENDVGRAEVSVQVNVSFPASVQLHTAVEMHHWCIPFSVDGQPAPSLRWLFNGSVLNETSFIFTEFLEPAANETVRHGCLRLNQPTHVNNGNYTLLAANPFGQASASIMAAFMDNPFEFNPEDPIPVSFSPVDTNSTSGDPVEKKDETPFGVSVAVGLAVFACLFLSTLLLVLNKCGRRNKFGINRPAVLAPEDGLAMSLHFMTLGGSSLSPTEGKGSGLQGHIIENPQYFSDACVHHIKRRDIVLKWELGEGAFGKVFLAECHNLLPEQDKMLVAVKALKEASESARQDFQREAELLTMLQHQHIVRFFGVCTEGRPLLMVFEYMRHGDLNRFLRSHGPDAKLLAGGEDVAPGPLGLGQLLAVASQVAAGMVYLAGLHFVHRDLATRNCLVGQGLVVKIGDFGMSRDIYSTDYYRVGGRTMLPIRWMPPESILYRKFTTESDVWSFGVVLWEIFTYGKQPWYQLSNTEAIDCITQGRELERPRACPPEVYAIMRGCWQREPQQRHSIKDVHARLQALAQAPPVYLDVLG
LCK, sequence (P06239 whole entry, species assumed): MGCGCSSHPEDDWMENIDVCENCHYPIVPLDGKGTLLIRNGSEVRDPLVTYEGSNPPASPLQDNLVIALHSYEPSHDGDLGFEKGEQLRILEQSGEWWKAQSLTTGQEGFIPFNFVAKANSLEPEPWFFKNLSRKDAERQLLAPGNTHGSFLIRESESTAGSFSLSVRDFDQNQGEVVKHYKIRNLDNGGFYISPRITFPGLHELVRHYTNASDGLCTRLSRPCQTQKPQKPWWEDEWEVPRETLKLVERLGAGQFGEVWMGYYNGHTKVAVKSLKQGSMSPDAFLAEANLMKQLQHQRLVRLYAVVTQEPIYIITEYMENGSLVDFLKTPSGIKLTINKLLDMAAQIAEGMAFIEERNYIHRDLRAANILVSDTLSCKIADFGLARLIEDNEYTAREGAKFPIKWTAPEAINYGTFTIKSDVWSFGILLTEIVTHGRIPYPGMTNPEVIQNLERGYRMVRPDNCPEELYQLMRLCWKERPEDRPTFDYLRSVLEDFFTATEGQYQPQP

With `CSc1nc(C(=O)Nc2ccc(Oc3ccnc(C(=O)NC4CNC4)c3)c(F)c2)c(-c2ccc(F)s2)o1` [Compound 27], the inhibition at 5 µM on TAOK2, on LCK, on TRKA and on TAOK3 was less than 50% throughout. In addition, the “inhibition of kinase activity, EPH-A5” value on EPH-A5 is on record as “E (category E is less than 50%)”.
For the compound `CSc1nc(C(=O)Nc2ccc(Oc3ccnc(C(=O)NC4COC4)c3)c(F)c2)c(-c2ccc(F)s2)o1` [Compound 28], the inhibition at 5 µM at TAOK2, at LCK, at TRKA and on TAOK3 was less than 50% throughout. The “inhibition of kinase activity, EPH-A5” value at EPH-A5 is “E (category E is less than 50%)”.
For the compound `CNC(=O)c1cc(Oc2ccc(NC(=O)c3nc(SC(C)C)oc3-c3ccc(F)cc3)cc2F)ccn1` [Compound 34], the inhibition (as a rule, the change of the read-out against control, counted positive when it falls) at 5 µM at TAOK2 is 50 to 79%; at LCK, 80 to 89%; at TRKA, 80 to 89%; on TAOK3, 80 to 89%. For the same compound, the “inhibition of kinase activity, EPH-A5” value at EPH-A5 is listed as “C (C=80%-89% at 5 um)”.
Turning to `[2H]C([2H])([2H])NC(=O)c1cc(Oc2ccc(NC(=O)c3nc(SC)oc3-c3ccc(F)c(F)c3)cc2F)ccn1` [Compound 33], the inhibition at 5 µM was less than 50% at TAOK2, 50 to 79% at LCK, 50 to 79% on TRKA and 50 to 79% at TAOK3. The “inhibition of kinase activity, EPH-A5” value on EPH-A5 is given as “E (category E is less than 50%)”.
Turning to `CNC(=O)c1cc(Oc2ccc(NC(=O)c3nc(OC)oc3-c3ccc(F)cc3)cc2F)ccn1` [Compound 15], the inhibition at 5 µM was less than 50% at TAOK2, 50 to 79% at LCK, 50 to 79% on TRKA and less than 50% at TAOK3. In addition, at EPH-A5, the “inhibition of kinase activity, EPH-A5” value was “D (category D for 50-79)”.
As to `CNC(=O)c1cc(Oc2ccc(NC(=O)c3nc(NC)sc3-c3ccc(F)cc3C)cc2F)ccn1` [Compound 23], the inhibition at 5 µM was in the range of 50 to 79% on TAOK2, 80 to 89% at LCK, 80 to 89% at TRKA and 50 to 79% on TAOK3. On EPH-A5, the “inhibition of kinase activity, EPH-A5” value is “D (category D for 50-79)”.
As to `CNC(=O)c1cc(Oc2ccc(NC(=O)c3nc(SC)oc3-c3ccc(F)cc3Cl)cc2)ccn1` [Compound 3], the inhibition at 5 µM was less than 50% on TAOK2, no less than 95% on LCK, 80 to 89% on TRKA and less than 50% at TAOK3. On EPH-A5, the “inhibition of kinase activity, EPH-A5” value is “E (category E is less than 50%)”.
Consider `CSc1nc(C(=O)Nc2ccc(Oc3ccnc(C(=O)NC4COC4)c3)c(F)c2)c(-c2ccc(F)c(F)c2)o1` [Compound 37], for which the inhibition at 5 µM at TAOK2, at LCK, at TRKA and on TAOK3 was less than 50% each time. Besides, the “inhibition of kinase activity, EPH-A5” value at EPH-A5 is listed as “E (category E is less than 50%)”.
As for `CSc1nc(C(=O)Nc2ccc(Oc3ccnc(C(=O)NC4CNC4)c3)c(F)c2)c(-c2ccc(F)cc2)o1` [Compound 29], the inhibition at 5 µM was 50 to 79% at TAOK2, less than 50% on LCK, less than 50% on TRKA and 50 to 79% on TAOK3. Besides, the “inhibition of kinase activity, EPH-A5” value on EPH-A5 was “E (category E is less than 50%)”.
With `CSc1nc(C(=O)Nc2ccc(Oc3ccnc(-c4cnn(C)c4)c3)c(F)c2)c(-c2ccc(F)cc2)o1` [Compound 11], the inhibition at 5 µM was less than 50% on TAOK2, 90 to 94% at LCK, 50 to 79% on TRKA and less than 50% at TAOK3. In addition, the “inhibition of kinase activity, EPH-A5” value at EPH-A5 is recorded as “C (C=80%-89% at 5 um)”.
As to `CNC(=O)c1cc(Oc2ccc(NC(=O)c3nc(OC)oc3-c3ccc(F)s3)cc2F)ccn1` [Compound 25], the inhibition at 5 µM at TAOK2, at LCK, on TRKA and on TAOK3 was less than 50% throughout. Moreover, on EPH-A5, the “inhibition of kinase activity, EPH-A5” value is listed as “E (category E is less than 50%)”.
Turning to `CNC(=O)c1cc(Oc2ccc(NC(=O)c3nc(NC)oc3-c3ccc(F)s3)cc2F)ccn1` [Compound 17], the inhibition at 5 µM on TAOK2 is less than 50%; on LCK it was less than 50%; at TRKA, 50 to 79%; at TAOK3, less than 50%. Also, the “inhibition of kinase activity, EPH-A5” value at EPH-A5 was “E (category E is less than 50%)”.
Consider `CNC(=O)c1cc(Oc2ccc(NC(=O)c3nc(SC)oc3-c3ccc(F)cc3F)cc2F)ccn1` [Compound 12], for which the inhibition at 5 µM at TAOK2 is less than 50%; on LCK it was no less than 95%; on TRKA, 80 to 89%; at TAOK3, 50 to 79%. The “inhibition of kinase activity, EPH-A5” value at EPH-A5 is “D (category D for 50-79)”.
Regarding `CSc1nc(C(=O)Nc2ccc(Oc3ccnc(C(=O)NCCN(C)C)c3)c(F)c2)c(-c2ccc(F)cc2)o1` [Compound 41], the inhibition at 5 µM at TAOK2 was less than 50%; at LCK, 50 to 79%; at TRKA, less than 50%; at TAOK3 it was 50 to 79%. The “inhibition of kinase activity, EPH-A5” value on EPH-A5 is listed as “D (category D for 50-79)”.
Take `CNC(=O)c1cc(Oc2ccc(NC(=O)c3nc(C4CC4)oc3-c3ccc(F)cc3)cc2F)ccn1` [Compound 26]: the inhibition at 5 µM at TAOK2 fell in the range of 50 to 79%; on LCK it was 90 to 94%; at TRKA, 80 to 89%; at TAOK3, 80 to 89%. In addition, the “inhibition of kinase activity, EPH-A5” value on EPH-A5 is “C (C=80%-89% at 5 um)”.
As to `CNC(=O)c1cc(Oc2ccc(NC(=O)c3nc(S(C)(=O)=O)sc3-c3ccc(F)cc3)cc2F)ccn1` [Compound 13], the inhibition at 5 µM at TAOK2 was less than 50%; at LCK, 90 to 94%; at TRKA, 50 to 79%; at TAOK3, less than 50%. The “inhibition of kinase activity, EPH-A5” value on EPH-A5 was “D (category D for 50-79)”.
Consider `CNC(=O)c1cc(Oc2ccc(NC(=O)c3nc(COC)oc3-c3ccc(F)cc3)cc2F)ccn1` [Compound 30], for which the inhibition at 5 µM was in the range of 50 to 79% on TAOK2, 80 to 89% on LCK, 90 to 94% on TRKA and 80 to 89% at TAOK3. Further, on EPH-A5, the “inhibition of kinase activity, EPH-A5” value is “C (C=80%-89% at 5 um)”.
